Measurements from patent US20050107376A1, “Fungicidal mixtures based on prothioconazole” (priority 2002, published 2005).

How the values were obtained:
[1] = test system: Erysiphe [syn. Blumeria] graminis forma specialis. tritici; experiment: Activity against mildew of wheat (protective spray, wheat seedlings cultivar Kanzler); assay type: in vivo; details: 7 days, control 77% infestation
Experimental: (§1) The active compounds, separately or together, were formulated as a 10% emulsion in a mixture of 63% by weight of cyclohexanone and 27% by weight of emulsifier, and diluted with water to the desired concentration.
(§2) Evaluation was carried out by determining the infected leaf areas in percent. These percentages were converted into efficacies. The efficacy (W) was calculated as follows using Abbot's formula: [formula] • α corresponds to the fungal infection of the treated plants in % and • β corresponds to the fungal infection of the untreated (control) plants in %
(§3) An efficacy of 0 means that the infection level of the treated plants corresponds to that of the untreated control plants; an efficacy of 100 means that the treated plants were not infected.
(§4) The expected efficacies of the mixtures of the active compounds were determined using Colby's formula [R. S. Colby, Weeds 15, 20-22 (1967)] and compared with the observed efficacies. Colby's formula: E x+y−x•y/100 • E expected efficacy, expressed in % of the untreated control, when using the mixture of the active compounds A and B at the concentrations a and b • x efficacy, expressed in % of the untreated control, when using active compound A at a concentration of a • y efficacy, expressed in % of the untreated control, when using active compound B at a concentration of b.
Leaves of wheat seedlings of the cultivar “Kanzler”, which had been grown in pots, were sprayed to runoff point with an aqueous suspension having the concentration of active compound stated below. The suspension or emulsion was prepared from a stock solution with 10% of active compound in a mixture comprising 85% of cyclohexanone and 5% of emulsifier. 24 hours after the spraycoating had dried on, the plants were dusted with spores of mildew of wheat (Erysiphe [syn. Blumeria] graminis forma specialis. tritici). The test plants were then placed in a greenhouse at 20-24° C. and 60-90% relative atmospheric humidity. After 7 days, the extent of the mildew development was determined visually in % infection of the total leaf area.
The visually determined values for the percentage of diseased leaf areas were converted into efficacies in % of the untreated control. An efficacy of 0 means the same disease level as in the untreated control, an efficacy of 100 means 0% disease. The expected efficacies for combinations of active compounds were determined using the abovementioned Colby formula and compared with the observed efficacies.

Puccinia recondita = experiment: Curative activity against brown rust of wheat (wheat seedlings cultivar Kanzler); assay type: in vivo; details: 7 days, control 90% infestation
Experimental: as §1, §2, §3, §4
Leaves of wheat seedlings of the cultivar “Kanzler”, which had been grown in pots, were dusted with spores of brown rust (Puccinia recondita). The pots were then placed in a chamber with high atmospheric humidity (90-95%), at 20-22° C. During this time, the spores germinated and the germinal tubes penetrated into the leaf tissue. The next day, the infected plants were sprayed to runoff point with an aqueous suspension having the concentration of active compound stated below. The suspension or emulsion was prepared from a stock solution with 10% of active compound in a mixture comprising 85% of cyclohexanone and 5% of emulsifier. After the spray coating had dried on, the test plants were cultivated in a greenhouse at 20-22° C. in 65-70% relative atmospheric humidity for 7 days. The extent of the rust fungus development on the leaves was then determined.
The visually determined values for the percentage of diseased leaf areas were converted into efficacies in % of the untreated control. An efficacy of 0 means the same disease level as in the untreated control, an efficacy of 100 means 0% disease. The expected efficacies for active compound combinations were determined using the abovementioned Colby formula and compared with the observed efficacies.

SMILES | Efficacy in % of the untreated control ([1]; 0.25 ppm in the spray liquor) | Efficacy in % of the untreated control ([1]; 1 ppm in the spray liquor) | Efficacy in % of the untreated control (Puccinia recondita; 0.25 ppm in the spray liquor) | Efficacy in % of the untreated control (Puccinia recondita; 1 ppm in the spray liquor) | Efficacy in % of the untreated control ([1]; 0.15 ppm in the spray liquor) | Efficacy in % of the untreated control ([1]; 0.6 ppm in the spray liquor) | Efficacy in % of the untreated control ([1]; 2.5 ppm in the spray liquor) | Efficacy in % of the untreated control (Puccinia recondita; 0.15 ppm in the spray liquor) | Efficacy in % of the untreated control (Puccinia recondita; 0.6 ppm in the spray liquor) | Efficacy in % of the untreated control (Puccinia recondita; 2.5 ppm in the spray liquor)
OC(Cc1ccccc1Cl)(Cn1nc[nH]c1=S)C1(Cl)CC1 (stereo not drawn) [Compound I, 2-[2-(1-chlorocyclopropyl)-3-(2-chlorophenyl)-2-hydroxy-propyl]-2,4-dihydro-[1,2,4]-triazole-3-thione] | 0% | 0% | 22% | 78% |  |  |  |  |  | 
CC(Cc1ccc(C(C)(C)C)cc1)CN1C[C@@H](C)O[C@@H](C)C1 (stereo partly drawn) [Compound II, fenpropimorph] |  |  |  |  | 0% | 0% | 74% | 0% | 0% | 22%
CCCCCCCCCCCCCN1CC(C)OC(C)C1 (stereo not drawn) [Compound III, tridemorph] |  |  |  |  | 0% | 0% | 48% | 0% | 0% | 0%
CC(Cc1ccc(C(C)(C)C)cc1)CN1CCCCC1 (stereo not drawn) [Compound IV, fenpropidin] |  |  |  |  | 0% | 61% |  | 0% | 0% | 44%
